# Several values for one entry are separate records, joined by “and”; a condition that tells them apart may be missing. Identical values can stand only once.
# Tested on: CD2F1 mice, P1798 lymphosarcoma sc, tumor weight T/C
# Test: NCI In Vivo Anticancer Drug Screen. Data for tumor model P1798 Lymphosarcoma (subcutaneous) in CD2F1 (CDF1) mice
# Conditions: endpoint: mean tumor weight, higher = larger tumour
# Description: The antitumor activity of compounds was measured in mice bearing transplantable tumors. Survival or tumor size were measured and the results are expressed as the measurement made in the treated group (T) divided by the measurement made in the vehicle treated control group (C). The tumor model used in this assay is P1798 Lymphosarcoma (subcutaneous) in CD2F1 (CDF1) mice
# [1] = dose: 100.0 mg/kg/injection, schedule: Q01DX010 (ip), vehicle: saline
# [2] = dose: 200.0 mg/kg/injection, schedule: Q01DX010 (ip), vehicle: saline
# [3] = dose: 12.5 mg/kg/injection, schedule: Q01DX010 (ip), vehicle: saline
# [4] = dose: 25.0 mg/kg/injection, schedule: Q01DX010 (ip), vehicle: saline
# [5] = dose: 50.0 mg/kg/injection, schedule: Q01DX010 (ip), vehicle: saline
# [6] = dose: 1.25 mg/kg/injection, schedule: Q01DX010 (ip), vehicle: saline
# [7] = dose: 2.5 mg/kg/injection, schedule: Q01DX010 (ip), vehicle: saline
# [8] = dose: 10.0 mg/kg/injection, schedule: Q01DX010 (ip), vehicle: saline
smiles,measurement,setting,value
Nc1nc(SCc2ccccc2)c2[nH]cnc2n1,T/C,"dose: 16.0 mg/kg/injection, schedule: Q01DX010 (ip), vehicle: saline",86 % of control
same,T/C,"dose: 64.0 mg/kg/injection, schedule: Q01DX010 (ip), vehicle: saline",90 % of control
N#CCCCCCNC(=O)CCCCC(=O)NCCCCCC#N,T/C,[1],85 % of control
same,T/C,[2],111 % of control
same,T/C,"dose: 400.0 mg/kg/injection, schedule: Q01DX010 (ip), vehicle: saline",87 % of control
CCc1c(CC(=O)O)c2cc(C)ccc2n1Cc1ccc(Cl)cc1,T/C,[3],120 % of control
same,T/C,[4],87 % of control
same,T/C,[5],54 % of control
Nc1nncs1,T/C,"dose: 1.88 mg/kg/injection, schedule: Q01DX010 (ip), vehicle: saline",93 % of control
same,T/C,"dose: 3.75 mg/kg/injection, schedule: Q01DX010 (ip), vehicle: saline",68 % of control
same,T/C,"dose: 7.5 mg/kg/injection, schedule: Q01DX010 (ip), vehicle: saline",69 % of control
same,T/C,"dose: 15.0 mg/kg/injection, schedule: Q01DX010 (ip), vehicle: saline",52 % of control and 59 % of control
same,T/C,"dose: 30.0 mg/kg/injection, schedule: Q01DX010 (ip), vehicle: saline",7 % of control
O=C1C=Cc2ccc(O)cc2C1=O,T/C,[6],72 % of control
same,T/C,[7],63 % of control
NC(=O)n1cccn1,T/C,[4],84 % of control
same,T/C,[5],75 % of control
same,T/C,[1],71 % of control
same,T/C,[2],45 % of control
CCCNc1ncnc2c1cnn2C,T/C,"dose: 3.13 mg/kg/injection, schedule: Q01DX010 (ip), vehicle: saline",90 % of control
same,T/C,"dose: 6.25 mg/kg/injection, schedule: Q01DX010 (ip), vehicle: saline",103 % of control
same,T/C,[3],86 % of control
C[C@]12CC[C@@H]3c4ccccc4CC[C@H]3[C@@H]1CC[C@@H]2O,T/C,"dose: 100.0 mg/kg/injection, schedule: Q01DX010 (sc), vehicle: steriod suspending solution",94 % of control
same,T/C,"dose: 200.0 mg/kg/injection, schedule: Q01DX010 (sc), vehicle: steriod suspending solution",74 % of control
same,T/C,"dose: 400.0 mg/kg/injection, schedule: Q01DX010 (sc), vehicle: steriod suspending solution",33 % of control
same,T/C,"dose: 800.0 mg/kg/injection, schedule: Q01DX010 (sc), vehicle: steriod suspending solution",7 % of control
CC(=O)[C@@]12OC(C)(C)O[C@@H]1C[C@H]1[C@@H]3C[C@H](C)C4=CC(=O)CC[C@]4(C)[C@H]3CC[C@@]12C,T/C,"dose: 12.5 mg/kg/injection, schedule: Q01DX005 (sc), vehicle: steriod suspending solution",72 % of control
same,T/C,"dose: 12.5 mg/kg/injection, schedule: Q01DX010 (sc), vehicle: steriod suspending solution",64 % of control
same,T/C,"dose: 25.0 mg/kg/injection, schedule: Q01DX005 (sc), vehicle: steriod suspending solution",61 % of control
same,T/C,"dose: 25.0 mg/kg/injection, schedule: Q02DX010 (sc), vehicle: steriod suspending solution",95 % of control
same,T/C,"dose: 25.0 mg/kg/injection, schedule: Q03DX004 (sc), vehicle: steriod suspending solution",56 % of control
same,T/C,"dose: 50.0 mg/kg/injection, schedule: Q01DX005 (sc), vehicle: steriod suspending solution",38 % of control
same,T/C,"dose: 50.0 mg/kg/injection, schedule: Q02DX010 (sc), vehicle: steriod suspending solution",88 % of control
same,T/C,"dose: 50.0 mg/kg/injection, schedule: Q03DX004 (sc), vehicle: steriod suspending solution",59 % of control
same,T/C,"dose: 100.0 mg/kg/injection, schedule: Q01DX005 (sc), vehicle: steriod suspending solution",13 % of control
same,T/C,"dose: 100.0 mg/kg/injection, schedule: Q02DX010 (sc), vehicle: steriod suspending solution",93 % of control
same,T/C,"dose: 100.0 mg/kg/injection, schedule: Q03DX004 (sc), vehicle: steriod suspending solution",16 % of control
C=C(C)C(=O)O[C@H]1CC2=C[C@@H](C[C@@]3(C)O[C@@H]3[C@H]3OC(=O)C(=C)[C@@H]31)OC2=O,T/C,"dose: 2.5 mg/kg/injection, schedule: Q01DX011 (sc), vehicle: saline",94 % of control
same,T/C,"dose: 5.0 mg/kg/injection, schedule: Q01DX011 (sc), vehicle: saline",73 % of control
same,T/C,"dose: 10.0 mg/kg/injection, schedule: Q01DX011 (sc), vehicle: saline",116 % of control
CCOC(=O)NP(=O)(N1CC1)N1CC1,T/C,"dose: 5.0 mg/kg/injection, schedule: Q01DX010 (ip), vehicle: saline",64 % of control
same,T/C,[8],55 % of control
C[C@H]1C[C@@H]2[C@H]([C@@H](O)C[C@@]3(C)[C@H]2CC[C@]3(O)C(=O)CO)[C@@]2(C)C=CC(=O)C=C12,T/C,"dose: 50.0 mg/kg/injection, schedule: Q01DX010 (sc), vehicle: steriod suspending solution",7 % of control
CC1CC(C)OS(=O)O1 (stereo not drawn),T/C,"dose: 44.0 mg/kg/injection, schedule: Q01DX010 (ip), vehicle: saline",70 % of control
same,T/C,"dose: 66.0 mg/kg/injection, schedule: Q01DX010 (ip), vehicle: saline",30 % of control
CC[n+]1c(-c2ccccc2)c2cc(N)ccc2c2ccc(N)cc21,T/C,[6],108 % of control
same,T/C,[7],97 % of control
same,T/C,[8],4 % of control and 10 % of control

# — PubChem BioAssay AID268 (DTP/NCI, 2004)
